Test results reported in PMC7660650, “Chemical Starting Matter for HNF4α Ligand Discovery and Chemogenomics” (International Journal of Molecular Sciences, 2020).
Several values for one entry are separate records, joined by “and”; a condition that tells them apart may be missing. Equal entries are not always repeated. Where two headings read alike, the source gives them in different places.

Experiments:
[1] = target: T1, Gal4-HNF4α (human HNF4α LBD) (Homo sapiens, UniProt P41235); assay: Hybrid Gal4-HNF4α reporter gene assay in transiently transfected HEK293T cells; format: cell-based; conditions: for Primary Screen (Fold Act., 50 µM): mean of two biologically independent repeats, vs. 0.2% DMSO
T1 construct: uniprot entry: P41235-1, residues 142-377; expressed in transfected cells; host or cells: HEK293T
T1 sequence (P41235 142-377): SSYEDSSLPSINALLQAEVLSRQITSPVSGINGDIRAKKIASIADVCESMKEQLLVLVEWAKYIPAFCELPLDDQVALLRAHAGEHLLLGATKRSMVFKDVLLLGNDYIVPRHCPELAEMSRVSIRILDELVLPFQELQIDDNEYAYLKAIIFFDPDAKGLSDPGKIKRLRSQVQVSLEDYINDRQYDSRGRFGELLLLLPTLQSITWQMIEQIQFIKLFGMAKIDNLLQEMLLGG

[2] = test system: Gal4–VP16; assay: Gal4-VP16 control experiment (reporter gene assay, HEK293T cells); format: cell-based; conditions: mean ± SD
Procedure: The frame and sequence of the fusion plasmid were verified by sequencing. pFR-Luc (Stratagene) was used as reporter plasmid and pRL-SV40 (Promega, Madison, WI, USA) served for normalization of transfection efficiency and cell growth. The Gal4-VP16 [25] expressed from plasmid pECE-SV40-Gal4-VP16 [26] […] Assay Procedure: HEK293T cells were grown in Dulbecco’s Modified Eagle Medium (DMEM) high glucose, supplemented with 10% Fetal Bovine Serum (FCS), sodium pyruvate (1 mM), penicillin (100 U/mL), and streptomycin (100 μg/mL) at 37 °C and 5% CO2. The day before transfection, HEK293T cells were seeded in 96-well plates (3.0·10^4 cells/well). Before transfection, the medium was changed to Opti-MEM without supplements. Transient transfection was carried out using Lipofectamine LTX reagent (Invitrogen, Carlsbad, CA, USA) according to the manufacturer’s protocol with pFR-Luc (Stratagene), pRL-SV40 (Promega), and the pFA-CMV-hHNF4α-LBD clone or pECE-SV40-Gal4-VP16 for control experiments. Five hours after transfection, the medium was changed to Opti-MEM supplemented with penicillin (100 U/mL), streptomycin (100 μg/mL), now additionally containing 0.1% DMSO (0.2% in the primary screen) and the respective test compounds or 0.1% DMSO (0.2% in the primary screen) alone as the untreated control. In the primary screening, the core set of the Prestwick Drug Fragment Library (Prestwick Chemical, Illkirch, France) was tested at 50 µM concentration in two biologically independent repeats. In the follow-up and dose-response profiling, each concentration was tested in duplicates in at least three biologically independent repeats. Following overnight (12−14 h) incubation with the test compounds, cells were assayed for luciferase activity using Dual-Glo™ luciferase assay system (Promega) according to the manufacturer’s protocol. Luminescence was measured with a Tecan Spark 10M luminometer (Tecan Group Ltd., Männedorf, Switzerland). […] Fold activation was obtained by dividing the mean RLU of test compounds at a respective concentration by the mean RLU of untreated control.

[3] = 50 µM, mean ± SD, at least four repeats
[4] = 100 µM, mean ± SD, at least four repeats
[5] = Table S1, primary screening, 50 µM

SMILES | HNF4a-screening_activity_(mean_of_n=2) [1, 5] | also measured
Cc1cc(=O)n(-c2ccc(C)c(C)c2)[nH]1 [compound 11, Cc1cc(=O)n([nH]1)-c1ccc(C)c(C)c1] | 0.3184 | Primary Screen (Fold Act., 50 µM) ([1]; 50 µM): 0.32 fold activation; Follow-up HNF4α (fold activation of reporter activity) [1, 3]: tendency for HNF4α modulation; Follow-up HNF4α (fold activation of reporter activity) [1, 4]: 0.21 ± 0.03 (100 µM) fold activation; VP16 Control (fold activation of reporter activity) ([2]; 100 µM): 0.21 ± 0.02 (100 µM) fold activation
Cc1nc(-c2ccccc2)c(-c2ccccc2)o1 [compound 8] | – | Follow-up HNF4α (fold activation of reporter activity) [1, 3]: 1.1 ± 0.2 (50 µM) fold activation; VP16 Control (fold activation of reporter activity) ([2]; 50 µM): 0.92 ± 0.07 (50 µM) fold activation
Nc1nc2cc(C(=O)c3ccccc3)ccc2[nH]1 [compound 3] | – | Primary Screen (Fold Act., 50 µM) ([1]; 50 µM): 2.09 fold activation; Follow-up HNF4α (fold activation of reporter activity) [1, 3]: 1.5 ± 0.2 (50 µM) fold activation; VP16 Control (fold activation of reporter activity) ([2]; 50 µM): 1.7 ± 0.3 (50 µM) fold activation
CC(C)CC(N)C1(c2ccc(Cl)cc2)CCC1 (centres unmarked) [compound 5, CC(C)CC(N)C1(CCC1)c1ccc(Cl)cc1] | – | Primary Screen (Fold Act., 50 µM) ([1]; 50 µM): 1.80 fold activation; Follow-up HNF4α (fold activation of reporter activity) [1, 3]: tendency for HNF4α modulation; Follow-up HNF4α (fold activation of reporter activity) [1, 4]: 2.5 ± 0.2 (100 µM) fold activation; HNF4α Ligand Type ([1]; Gal4-HNF4α assay): Agonist; HNF4a-screening_activity_(mean_of_n=2) ([1]; Table S1, primary screening, 50 µM, listed as Prestw-Frag-1566): 0.9114 and 1.797; EC50 ([1]; dose-response, mean ± SD, at least four repeats, read-out: Validated HNF4α Modulation EC50): > 100 µM; HNF4α vs. VP16 (p, t-test) ([1]; significance of Gal4-HNF4α follow-up vs Gal4-VP16 control at the same concentration): p < 0.0001 (***); VP16 Control (fold activation of reporter activity) ([2]; 100 µM): 1.1 ± 0.1 (100 µM) fold activation
C#Cc1cccc(N)c1 [Prestw-Frag-3669, Nc1cccc(c1)C#C] | 1.159 | –
c1ccc(-c2nnn[nH]2)cc1 [Prestw-Frag-2887, c1ccc(cc1)-c1nnn[nH]1] | 0.9719 | –
COCCOC(=O)c1ccc(N)cc1 [Prestw-Frag-2453, COCCOC(=O)c1ccc(N)cc1] | 1.565 | –
COc1cc2c(cc1OC)C(C)N(C)CC2 (centres unmarked) [Prestw-Frag-1273, COc1cc2CCN(C)C(C)c2cc1OC] | 1.056 and 0.9179 | –
COc1cccc2c1CCCC2=O [Prestw-Frag-1236, COc1cccc2C(=O)CCCc12] | 1.287 | –
Cc1oncc1C(N)=O [Prestw-Frag-1128, Cc1oncc1C(N)=O] | 0.9735 and 0.9722 | –
N=C(N)CSCc1ccccc1 [Prestw-Frag-2348, NC(=N)CSCc1ccccc1] | 1.134 | –
O=C(OC1CCCCC1)c1ccccc1O [Prestw-Frag-1382, Oc1ccccc1C(=O)OC1CCCCC1] | 0.9579 and 1.189 | –
Cc1c[nH]nc1C [Prestw-Frag-1408, Cc1c[nH]nc1C] | 1.108 | –
CCc1ccc(CCO)nc1 [Prestw-Frag-2968, CCc1ccc(CCO)nc1] | 1.216 | –
O=C1COCCN1 [Prestw-Frag-3463, O=C1COCCN1] | 1.252 | –
Cc1cc(C(C)(C)CC(C)(C)C)ccc1O [compound 1, Cc1cc(ccc1O)C(C)(C)CC(C)(C)C] | – | Primary Screen (Fold Act., 50 µM) ([1]; 50 µM): 2.48 fold activation; Follow-up HNF4α (fold activation of reporter activity) [1, 3]: 1.1 ± 0.2 (50 µM) fold activation; HNF4a-screening_activity_(mean_of_n=2) ([1]; Table S1, primary screening, 50 µM, listed as Prestw-Frag-1016): 2.483 and 1.264; VP16 Control (fold activation of reporter activity) ([2]; 50 µM): 0.80 ± 0.07 (50 µM) fold activation
O=C(c1ccc(C(F)(F)F)cc1)C1CCCCC1 [Prestw-Frag-3334, FC(F)(F)c1ccc(cc1)C(=O)C1CCCCC1] | 1.014 | –
ClC1(Cl)CC1c1ccccc1 (centres unmarked) [Prestw-Frag-2566, ClC1(Cl)CC1c1ccccc1] | 1.078 | –
Oc1cccc2cccnc12 [Prestw-Frag-2592, Oc1cccc2cccnc12] | – | HNF4a-screening_activity_(mean_of_n=2) [1]: 0.6969
CCCCOc1cc(C(=O)NC)c2ccccc2n1 [Prestw-Frag-1228, CCCCOc1cc(C(=O)NC)c2ccccc2n1] | 0.8368 and 0.967 | –
O=C(O)CCc1ccc(Cl)cc1 [Prestw-Frag-1126, OC(=O)CCc1ccc(Cl)cc1] | 0.7294 | –

SMILES | HNF4a-screening_activity_(mean_of_n=2) [1, 5] | also measured
OC(c1ccccc1)c1ccc(Cl)cc1 (centres unmarked) [Prestw-Frag-1106, OC(c1ccccc1)c1ccc(Cl)cc1] | 0.8543 | –
O=c1[nH]c2ccccc2n1C1CCNCC1 [Prestw-Frag-1587, O=c1[nH]c2ccccc2n1C1CCNCC1] | 1.041 | –
CC(CO)Nc1ccccc1 (centres unmarked) [Prestw-Frag-3755, CC(CO)Nc1ccccc1] | 0.8925 | –
COC(=O)C(O)c1ccccc1 (centres unmarked) [Prestw-Frag-2423, COC(=O)C(O)c1ccccc1] | 1.193 | –
COC(=O)c1scc(C)c1N [Prestw-Frag-1111, COC(=O)c1scc(C)c1N] | 1.183 | –
O=C(c1ccccc1)c1ccc(Br)cc1 [Prestw-Frag-2912, Brc1ccc(cc1)C(=O)c1ccccc1] | 0.975 | –
OCc1ccc(F)cc1F [Prestw-Frag-3100, OCc1ccc(F)cc1F] | 0.9757 | –
CNS(=O)(=O)Cc1ccc2[nH]cc(CCN)c2c1 [Prestw-Frag-3017, CNS(=O)(=O)Cc1ccc2[nH]cc(CCN)c2c1] | 0.7522 | –
O=C1CCc2ccccc2N1 [Prestw-Frag-2464, O=C1CCc2ccccc2N1] | 1.314 | –
COC(=O)C(O)(c1ccccc1)C1CCCC1 (centres unmarked) [Prestw-Frag-2484, COC(=O)C(O)(C1CCCC1)c1ccccc1] | 1.411 | –
O=C1CCCc2[nH]ccc21 [Prestw-Frag-2675, O=C1CCCc2[nH]ccc12] | 1.012 | –
CC(=O)NCCc1c[nH]c2ccccc12 [Prestw-Frag-1478, CC(=O)NCCc1c[nH]c2ccccc12] | 1.089 | –
COc1ccccc1OCCCO [Prestw-Frag-1335, COc1ccccc1OCCCO] | 0.806 and 0.9658 | –
c1ccc(Cn2ccnc2)cc1 [Prestw-Frag-2620, C(c1ccccc1)n1ccnc1] | 0.9802 | –
O=C(c1ccccc1)N1CCNCC1 [Prestw-Frag-3677, O=C(N1CCNCC1)c1ccccc1] | 0.9693 | –
c1cnc(N2CCNCC2)nc1 [Prestw-Frag-1398, C1CN(CCN1)c1ncccn1] | 1.074 and 0.9138 | –
OCCn1ccnc1 [Prestw-Frag-1303, OCCn1ccnc1] | 0.8061 and 1.219 | –
c1ccc2nccnc2c1 [Prestw-Frag-3033, c1ccc2nccnc2c1] | 0.9657 | –
c1ccc2c(c1)CNc1ccccc1C2 [Prestw-Frag-1722, C1Nc2ccccc2Cc2ccccc12] | 1.196 and 1.047 | –
NC(=O)c1ccc2[nH]ccc2c1 [Prestw-Frag-3336, NC(=O)c1ccc2[nH]ccc2c1] | 1.118 | –
COC(=O)CN1CCc2sccc2C1 [Prestw-Frag-3371, COC(=O)CN1CCc2sccc2C1] | 1.101 | –
